# Assay results taken from ChEMBL document CHEMBL5365521, “Discovery of the Potent and Selective Inhaled Janus Kinase 1 Inhibitor AZD4604 and Its Preclinical Characterization” (J Med Chem, 2023).
# pIC50: −log10 of the molar value. Active and inactive are the calls of the source. No cut-off for these calls is given here.
# Key:
# [1] = Toxicity in human CD4+ T cell assessed as reduction in cell viability measured after 5 days by eFluor780 staining based flow cytometry analysis; details: 120 h, dose 1-10000 nM, time 5 day
# [2] = test system: Th2 cell; assay: Inhibition of human naive Th2 cell differentiation assessed as decrease in IL-5 production measured after 5 days by MSD assay; format: functional, cell-based; details: time 5.0 day
# [3] = Volume of distribution at steady state in Han Wistar rat at 0.5 mg/kg, iv; format: ADME, organism-based; details: in vivo, read-out: Vdss
# [4] = Toxicity in human naive Th1 cell assessed as reduction in cell viability at 1 to 10000 nM; format: cell-based; details: 10 µM, dose 1-10000 nM
# [5] = Toxicity in human naive Th2 cell assessed as reduction in cell viability at 1 to 10000 nM; format: cell-based; details: 10 µM, dose 1-10000 nM
# [6] = Metabolic stability in human liver microsomes assessed as intrinsic clearance; format: ADME, Microsome; details: read-out: CLH
# [7] = test system: Th2 cell; assay: Inhibition of human naive Th2 cell differentiation assessed as decrease in IL-4 production measured after 5 days by MSD assay; format: functional, cell-based; details: dose 1-10000 nM, time 5.0 day
# [8] = Terminal half life in Han Wistar rat at 1 mg/kg, po; format: ADME, organism-based; details: in vivo, read-out: beta t1/2 (converted)
# [9] = AUC(0 to 24 hrs) in rat at 0.020 micromol/kg, IT; format: ADME; design: dose 0.02 µmol/kg, route it; details: in vivo, 0.02 µmol/kg
# [10] = molecular target: T1, Tyrosine-protein kinase JAK1 (Homo sapiens, UniProt P23458); assay: Inhibition of JAK1 in human CD14-positive cell monocytes isolated from human PBMC assessed as reduction in dendritic cells development measured after 5 days by flow cytometry analysis; format: cell-based; details: dose 10-1000 nM, time 5.0 day
# T1 sequence (P23458 whole entry): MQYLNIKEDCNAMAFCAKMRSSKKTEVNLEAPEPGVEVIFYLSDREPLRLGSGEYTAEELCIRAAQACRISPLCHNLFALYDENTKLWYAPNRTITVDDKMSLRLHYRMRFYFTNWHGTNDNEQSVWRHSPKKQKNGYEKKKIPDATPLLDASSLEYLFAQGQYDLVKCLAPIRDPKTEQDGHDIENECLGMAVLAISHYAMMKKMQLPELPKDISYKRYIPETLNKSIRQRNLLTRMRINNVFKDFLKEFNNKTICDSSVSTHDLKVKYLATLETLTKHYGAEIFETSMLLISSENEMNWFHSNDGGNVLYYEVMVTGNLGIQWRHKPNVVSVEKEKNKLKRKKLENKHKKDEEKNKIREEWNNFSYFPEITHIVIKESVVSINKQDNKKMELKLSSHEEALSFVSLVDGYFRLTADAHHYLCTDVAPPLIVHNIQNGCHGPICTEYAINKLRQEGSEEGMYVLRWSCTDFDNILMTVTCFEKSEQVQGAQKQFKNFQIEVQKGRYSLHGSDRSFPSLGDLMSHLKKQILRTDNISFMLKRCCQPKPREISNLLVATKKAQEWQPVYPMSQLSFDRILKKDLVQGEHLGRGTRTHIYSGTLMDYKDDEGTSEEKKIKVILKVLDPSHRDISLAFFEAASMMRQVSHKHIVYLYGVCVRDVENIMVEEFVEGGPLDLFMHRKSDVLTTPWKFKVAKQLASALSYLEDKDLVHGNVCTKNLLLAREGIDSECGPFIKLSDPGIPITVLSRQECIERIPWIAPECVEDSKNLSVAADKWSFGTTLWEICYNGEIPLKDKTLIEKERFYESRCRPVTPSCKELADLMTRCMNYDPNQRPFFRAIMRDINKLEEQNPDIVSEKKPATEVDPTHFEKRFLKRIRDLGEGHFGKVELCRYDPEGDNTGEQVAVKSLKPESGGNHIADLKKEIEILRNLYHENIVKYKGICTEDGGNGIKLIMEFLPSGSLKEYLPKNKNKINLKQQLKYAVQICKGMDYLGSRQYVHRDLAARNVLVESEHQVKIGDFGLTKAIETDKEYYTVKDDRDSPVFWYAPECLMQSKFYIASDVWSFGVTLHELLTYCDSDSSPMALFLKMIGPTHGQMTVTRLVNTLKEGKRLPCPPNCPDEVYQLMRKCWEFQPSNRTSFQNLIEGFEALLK
# [11] = test system: Th2 cell; assay: Inhibition of human naive Th2 cell differentiation assessed as decrease in IL-13 production measured after 5 days by MSD assay; format: functional, cell-based; details: time 5.0 day
# [12] = molecular target: T1, Tyrosine-protein kinase JAK1; assay: Inhibition of JAK1 in human CD14-positive cell monocytes isolated from human PBMC assessed as reduction in mature dendritic phenotype by measuring CD11c expression level at 100 nM measured after 5 days by CD11c PE-CF594 staining based flow cytometry analysis; details: time 5.0 day
# [13] = Inhibition of JAK/STAT signaling pathway in human CD14-positive cell monocytes isolated from human PBMC assessed as inhibition of IL-4 stimulated STAT6 phosphorylation preincubated for 20 to 60 mins followed by IL-4 stimulation measured after 15 mins by flow cytometry analysis; format: cell-based
# [14] = Apparent permeability of compound across apical to basolateral side in human Caco-2 cells at pH 7.4; format: ADME, cell-based; details: Caco-2, pH 7.4
# [15] = Volume of distribution at steady state in Han Wistar rat at 1 mg/kg, po or 0.5 mg/kg, iv; format: ADME, organism-based; details: in vivo
# [16] = Drug uptake in lung of rat at 0.020 micromol/kg, IT; format: ADME, tissue-based; details: in vivo, other, dose 0.02 µmol/kg
# [17] = molecular target: Non-receptor tyrosine-protein kinase TYK2 (Homo sapiens, UniProt P29597); assay: Inhibition of GST-tagged human recombinant TYK2 (833 to 1187 residues) expressed in insect cells
# Sequence of Non-receptor tyrosine-protein kinase TYK2 (P29597 whole entry, the tested form may be a part): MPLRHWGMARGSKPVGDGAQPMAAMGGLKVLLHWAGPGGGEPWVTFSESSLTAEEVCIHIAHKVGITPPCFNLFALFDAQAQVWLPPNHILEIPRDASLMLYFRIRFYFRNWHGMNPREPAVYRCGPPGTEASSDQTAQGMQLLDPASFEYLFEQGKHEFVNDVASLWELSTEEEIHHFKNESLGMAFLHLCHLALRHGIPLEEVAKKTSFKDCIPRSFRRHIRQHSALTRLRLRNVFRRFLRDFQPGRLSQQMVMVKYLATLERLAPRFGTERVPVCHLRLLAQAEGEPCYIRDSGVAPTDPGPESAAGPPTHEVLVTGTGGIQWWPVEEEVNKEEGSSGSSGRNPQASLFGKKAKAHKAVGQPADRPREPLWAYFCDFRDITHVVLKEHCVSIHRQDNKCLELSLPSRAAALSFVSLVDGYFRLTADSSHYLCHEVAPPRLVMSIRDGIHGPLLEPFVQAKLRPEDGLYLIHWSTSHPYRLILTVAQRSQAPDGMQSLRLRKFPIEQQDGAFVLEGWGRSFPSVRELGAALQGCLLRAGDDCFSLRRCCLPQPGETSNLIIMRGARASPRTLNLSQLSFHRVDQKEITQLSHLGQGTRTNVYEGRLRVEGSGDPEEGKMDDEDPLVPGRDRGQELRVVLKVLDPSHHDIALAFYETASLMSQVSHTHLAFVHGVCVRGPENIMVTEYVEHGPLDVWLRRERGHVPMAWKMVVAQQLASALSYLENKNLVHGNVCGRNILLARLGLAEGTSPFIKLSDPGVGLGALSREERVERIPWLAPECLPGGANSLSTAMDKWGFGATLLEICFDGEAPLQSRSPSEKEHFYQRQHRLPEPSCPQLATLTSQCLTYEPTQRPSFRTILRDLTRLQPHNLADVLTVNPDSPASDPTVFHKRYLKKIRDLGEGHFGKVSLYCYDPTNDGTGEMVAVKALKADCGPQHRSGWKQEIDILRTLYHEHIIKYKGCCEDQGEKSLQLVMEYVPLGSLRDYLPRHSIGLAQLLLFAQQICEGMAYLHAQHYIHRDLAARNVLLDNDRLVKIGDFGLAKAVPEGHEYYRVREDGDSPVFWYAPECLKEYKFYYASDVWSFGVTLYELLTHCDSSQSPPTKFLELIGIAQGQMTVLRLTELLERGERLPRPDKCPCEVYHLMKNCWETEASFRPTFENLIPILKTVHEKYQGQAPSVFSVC
# [18] = Drug uptake in lung of rat at 0.06 to 24.79 microg/kg via inhalation measured upto 24 hrs by LC-MS/MS analysis; format: ADME, tissue-based; details: in vivo, inhaled_or_intranasal, dose 0.06-24.79 µg/kg
# [19] = Oral bioavailability in Han Wistar rat at 1 mg/kg; format: ADME, organism-based; details: in vivo
# [20] = molecular target: T1, Tyrosine-protein kinase JAK1; assay: Inhibition of JAK1 in human CD14-positive cell monocytes isolated from human PBMC assessed as reduction in mature dendritic phenotype by measuring CD14 expression level at 100 nM measured after 5 days by CD14 APC staining based flow cytometry analysis; details: time 5.0 day
# [21] = Metabolic stability in rat hepatocyte assessed as intrinsic clearance measured per 10^6 cells; format: ADME, cell-based; details: hepatocytes, read-out: CLH
# [22] = test system: Th1 cell; assay: Inhibition of human naive Th1 cell differentiation assessed as decrease in IFNg production measured after 5 days by MSD assay; format: functional, cell-based; details: dose 1-10000 nM, time 5.0 day
# [23] = Plasma protein binding in human assessed as free fraction; format: ADME, cell-free
# [24] = test system: CD4+ T cell; assay: Antiinflammatory activity in human CD4+ T cell assessed as reduction in CD25 expression measured after 5 days by eFluor780 staining based flow cytometry analysis; format: functional; details: dose 1-10000 nM, time 5.0 day
# [25] = Inhibition of JAK/STAT signaling pathway in human CD14-positive cell monocytes isolated from human PBMC assessed as inhibition of IL-13 stimulated STAT6 phosphorylation preincubated for 20 to 60 mins followed by IL-13 stimulation measured after 15 mins by flow cytometry analysis; format: cell-based
# [26] = Toxicity in human memory-derived Th17 cells assessed as reduction in cell viability at 1 to 10000 nM; format: cell-based; details: th17, 10 µM, dose 1-10000 nM
# [27] = Inhibition of JAK/STAT signaling pathway in human U-937 cells assessed as inhibition of IL-4 stimulated STAT6 phosphorylation; format: cell-based
# [28] = molecular target: T1, Tyrosine-protein kinase JAK1; assay: Inhibition of GST-tagged human recombinant JAK1 (866 to 1154 residues) expressed in insect cells
# [29] = Metabolic stability in human hepatocyte assessed as intrinsic clearance measured per 10^6 cells; format: ADME, cell-based; details: hepatocytes, read-out: CLH
# [30] = Thermodynamic solubility of the compound in phosphate buffer at pH 7.4 measured after 24 hrs by HPLC-MS analysis; format: physicochemical; details: read-out: Therm_solubility
# [31] = test system: Th17; assay: Inhibition of human memory-derived Th17 cell differentiation assessed as decrease in IL-17 production measured after 5 days by MSD assay; format: functional, cell-based; details: time 5.0 day
# [32] = Distribution coefficient between 1-Octanol and aqueous phosphate buffer, logD of the compound at pH 7.4 by shake-flask method; format: physicochemical; details: octanol/water
# [33] = Solubility in phosphate buffer at pH 7.4; format: physicochemical
# [34] = Inhibition of JAK/STAT signaling pathway in human CD4+ T cell assessed as inhibition of IL-4 stimulated STAT6 phosphorylation preincubated for 20 to 60 mins followed by IL-4 stimulation measured after 15 mins by flow cytometry analysis; format: cell-based
# [35] = molecular target: T2, Tyrosine-protein kinase JAK3 (Homo sapiens, UniProt P52333); assay: Inhibition of GST-tagged human recombinant JAK3 (781 to 1124 residues) expressed in insect cells
# T2 sequence (P52333 whole entry): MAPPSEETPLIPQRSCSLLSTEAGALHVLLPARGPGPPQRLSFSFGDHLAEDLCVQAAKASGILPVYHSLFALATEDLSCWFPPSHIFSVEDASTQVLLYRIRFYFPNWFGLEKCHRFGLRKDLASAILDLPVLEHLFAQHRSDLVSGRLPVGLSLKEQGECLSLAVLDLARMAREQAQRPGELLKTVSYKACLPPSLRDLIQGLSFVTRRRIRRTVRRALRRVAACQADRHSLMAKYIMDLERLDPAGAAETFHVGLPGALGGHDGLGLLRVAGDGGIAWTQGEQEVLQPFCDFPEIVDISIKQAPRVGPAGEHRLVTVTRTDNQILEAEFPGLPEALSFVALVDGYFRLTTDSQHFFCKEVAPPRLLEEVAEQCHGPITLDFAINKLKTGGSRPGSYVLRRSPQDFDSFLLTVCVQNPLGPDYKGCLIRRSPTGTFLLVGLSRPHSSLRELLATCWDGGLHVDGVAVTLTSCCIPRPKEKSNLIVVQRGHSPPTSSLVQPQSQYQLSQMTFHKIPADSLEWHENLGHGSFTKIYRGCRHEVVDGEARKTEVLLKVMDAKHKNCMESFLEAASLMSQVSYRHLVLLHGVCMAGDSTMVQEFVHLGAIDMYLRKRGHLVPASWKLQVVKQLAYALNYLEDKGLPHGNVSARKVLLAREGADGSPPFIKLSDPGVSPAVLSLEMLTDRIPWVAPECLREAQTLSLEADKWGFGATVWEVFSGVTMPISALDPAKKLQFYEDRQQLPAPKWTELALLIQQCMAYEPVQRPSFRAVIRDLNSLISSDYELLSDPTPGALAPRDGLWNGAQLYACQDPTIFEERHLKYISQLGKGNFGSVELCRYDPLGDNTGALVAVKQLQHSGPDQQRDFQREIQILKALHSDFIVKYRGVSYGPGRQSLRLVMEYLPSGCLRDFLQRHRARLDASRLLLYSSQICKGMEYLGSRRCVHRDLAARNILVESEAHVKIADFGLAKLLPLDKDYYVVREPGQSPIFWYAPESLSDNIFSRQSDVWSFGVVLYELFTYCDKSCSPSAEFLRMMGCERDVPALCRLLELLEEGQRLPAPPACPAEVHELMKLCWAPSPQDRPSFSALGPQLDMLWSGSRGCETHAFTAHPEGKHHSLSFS
structure (smiles),measurement,setting,value
COC[C@H](C(=O)Nc1cccc2c(-c3nc(Nc4cccc(S(C)(=O)=O)c4F)ncc3F)c[nH]c12)N1CCN(C)CC1 [LONDAMOCITINIB],Activity,[1],Dose-Dependent Effect
same,inhibition,[2],Dose-Dependent Effect
same,Vd,[3],11 L/kg
same,Activity,[4],Non-Toxic
same,Activity,[5],Non-Toxic
same,microsomal CLint,[6],25 µL/min/mg
same,inhibition,[7],Dose-Dependent Effect
same,half-life,[8],4.7 h
same,AUC(0-t),[9],8.6 µM·h
same,inhibition,[10],Dose-Dependent Effect
same,inhibition,[11],Dose-Dependent Effect
same,Activity,[12],Active
same,pIC50,[13],7.70
same,Papp A→B,[14],2.7 ×10⁻⁶ cm/s
same,Vdss,[15],9.9 L/kg
same,Drug uptake,[16],Active
same,pIC50,[17],6.18
same,Drug uptake,[18],Active
same,bioavailability,[19],44%
same,Activity,[20],Active
same,hepatocyte CLint,[21],6.9 µL/min/1e6 cells
same,inhibition,[22],Dose-Dependent Effect
same,fraction unbound,[23],0.08
same,Activity,[24],Dose-Dependent Effect
same,pIC50,[25],7.55
same,Activity,[26],Non-Toxic
same,pIC50,[27],7.62
same,pIC50,[28],9.27
same,hepatocyte CLint,[29],1.3 µL/min/1e6 cells
same,solubility thermodynamic at 24 h,[30],7 µM
same,inhibition,[31],Dose-Dependent Effect
same,logD,[32],2.6
same,solubility,[33],6 µM
same,pIC50,[34],7.68
same,pIC50,[35],< 5.00
